Reference: patent US12098145B2 (Libra Therapeutics, Inc., priority 2022, dated 2024)

What was measured:
TRPML1 = molecular target: T1, TRPML1 (Homo sapiens, UniProt Q9GZU1); experiment: Cellular TRPML1 assay (FLIPR, GCaMP6f calcium read-out); type: cell-based; conditions: HEKT-REx/GCaMP6f/TRPML1 cells, FLIPR TETRA, kinetic response over 300 seconds; read-out: TRPML1 FLIPR pEC50 (converted)
T1 construct: expressed in transfected cells; host or cells: HEK T-REx cells stably expressing GCaMP6f and TRPML1
T1 sequence (Q9GZU1 whole entry): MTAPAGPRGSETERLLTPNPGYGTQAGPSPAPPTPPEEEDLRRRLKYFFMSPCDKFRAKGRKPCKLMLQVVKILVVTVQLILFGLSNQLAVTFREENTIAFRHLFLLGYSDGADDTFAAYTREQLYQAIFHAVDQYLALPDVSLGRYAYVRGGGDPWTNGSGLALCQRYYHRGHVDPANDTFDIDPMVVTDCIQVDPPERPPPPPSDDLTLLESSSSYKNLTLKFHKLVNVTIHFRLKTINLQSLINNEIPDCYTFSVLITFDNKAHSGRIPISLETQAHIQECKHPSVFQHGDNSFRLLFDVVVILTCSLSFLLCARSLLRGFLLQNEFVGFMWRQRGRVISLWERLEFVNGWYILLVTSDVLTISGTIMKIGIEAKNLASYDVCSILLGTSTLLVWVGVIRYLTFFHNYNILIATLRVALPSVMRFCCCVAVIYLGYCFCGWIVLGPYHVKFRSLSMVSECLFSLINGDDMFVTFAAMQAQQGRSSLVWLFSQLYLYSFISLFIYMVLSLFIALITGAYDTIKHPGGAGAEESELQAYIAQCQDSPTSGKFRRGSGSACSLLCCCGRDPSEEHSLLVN
In short: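 HEK T-REx cells stably expressing TRPML1 and GCaMP6f, seeded 24 h before in Optimem + 0.5% FBS. After ~10 min pre-incubation at room temperature, compounds in Ca2+-free Tyrode's buffer were injected on FLIPR Tetra (final DMSO 0.5%). Calcium fluorescence kinetics followed for 300 s.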

TFEB = TFEB translocation assay (TFEB reporter in U2OS cells, imaging); type: cell-based; conditions: Homo sapiens; U2OS cell line with TFEB reporter, 2 hours incubation, nucleus to cytoplasm ratio, normalized to Torin-1; read-out: TFEB Translocation pEC50 (converted)
In short: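 U2OS cells stably expressing mRFP-fused TFEB reporter, switched to Opti-MEM then treated 2 h at 37 °C with compounds (0.5% DMSO, 0.015% Tween 80). Hoechst-stained, PFA-fixed cells imaged at 20×; nucleus/cytoplasm intensity ratio per well normalized to Torin-1 (100%) and DMSO (0%).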

EC50 (TRPML1) [µM]	Structure (SMILES)	EC50 (TFEB) [µM]
0.01 to 1	COC1(C)CN(c2nc(C(=O)Nc3cc(F)c(O[C@@H]4C[C@@H]5C[C@@H]5C4)c(Cl)c3)c(CC(F)(F)F)o2)C1 [Example 130, N-(4-(cis-bicyclo[3.1.0]hexan-3-yloxy)-3-chloro-5-fluorophenyl)-2-(3-methoxy-3-methylazetidin-1-yl)-5-(2,2,2-trifluoroethyl)oxazole-4-carboxamide]	0.01 to 1
0.01 to 1	CCC1(CC)CN(c2nc(C(=O)Nc3cc(C)c(O[C@@H]4C[C@@H]5C[C@@H]5C4)c(F)c3)c(CC(F)(F)F)o2)C1 [Example 131, N-(4-(cis-bicyclo[3.1.0]hexan-3-yloxy)-3-fluoro-5-methylphenyl)-2-(3,3-diethylazetidin-1-yl)-5-(2,2,2-trifluoroethyl)oxazole-4-carboxamide]	0.01 to 1
0.01 to 1	COC1(C)CN(c2nc(C(=O)Nc3cc(F)c(O[C@@H]4C[C@@H]5C[C@@H]5C4)c(C#N)c3)c(CC(F)(F)F)o2)C1 [Example 142, N-(4-(cis-bicyclo[3.1.0]hexan-3-yloxy)-3-cyano-5-fluorophenyl)-2-(3-methoxy-3-methylazetidin-1-yl)-5-(2,2,2-trifluoroethyl)oxazole-4-carboxamide]	0.01 to 1
0.01 to 1	O=C(Nc1cc(F)c(O[C@@H]2C[C@@H]3C[C@@H]3C2)c(F)c1)c1nc(N2CCC3COCC32)oc1CC(F)(F)F (stereo partly drawn) [Example 144, N-(4-(cis-bicyclo[3.1.0]hexan-3-yloxy)-3,5-difluorophenyl)-2-(hexahydro-1H-furo[3,4-b]pyrrol-1-yl)-5-(2,2,2-trifluoroethyl)oxazole-4-carboxamide]	0.01 to 1
0.01 to 1	CCC1(CC)CN(c2nc(C(=O)Nc3cc(F)c(OC4CC5CC(C5)C4)c(F)c3)c(CC(F)(F)F)o2)C1 (centres unmarked) [Example 145, N-(4-(bicyclo[3.1.1]heptan-3-yloxy)-3,5-difluorophenyl)-2-(3,3-diethylazetidin-1-yl)-5-(2,2,2-trifluoroethyl)oxazole-4-carboxamide]	0.01 to 1
0.01 to 1	CCC1(OC)CN(c2nc(C(=O)Nc3cc(F)c(OC4CC5CC(C5)C4)c(F)c3)c(CC(F)(F)F)o2)C1 (centres unmarked) [Example 148, N-(4-(bicyclo[3.1.1]heptan-3-yloxy)-3,5-difluorophenyl)-2-(3-ethyl-3-methoxyazetidin-1-yl)-5-(2,2,2-trifluoroethyl)oxazole-4-carboxamide]	0.01 to 1
0.01 to 1	CCC1(OC)CN(c2nc(C(=O)Nc3ccc(OC4CC5CC(C5)C4)c(F)c3)c(CC(F)(F)F)o2)C1 (centres unmarked) [Example 149, N-(4-(bicyclo[3.1.1]heptan-3-yloxy)-3-fluorophenyl)-2-(3-ethyl-3-methoxyazetidin-1-yl)-5-(2,2,2-trifluoroethyl)oxazole-4-carboxamide]	0.01 to 1
0.01 to 1	CCC1(OC)CN(c2nc(C(=O)Nc3cc(F)c(OC4CC5CCC4C5)c(F)c3)c(CC(F)(F)F)o2)C1 (centres unmarked) [Example 150, N-(4-(bicyclo[2.2.1]heptan-2-yloxy)-3,5-difluorophenyl)-2-(3-ethyl-3-methoxyazetidin-1-yl)-5-(2,2,2-trifluoroethyl)oxazole-4-carboxamide]	0.01 to 1
0.01 to 1	O=C(Nc1ccc(O[C@@H]2C[C@@H]3C[C@@H]3C2)c(F)c1)c1nc(N2CC3CC3C2)oc1CC(F)(F)F (stereo partly drawn) [Example 156, 2-(3-azabicyclo[3.1.0]hexan-3-yl)-N-(4-(cis-bicyclo[3.1.0]hexan-3-yloxy)-3-fluorophenyl)-5-(2,2,2-trifluoroethyl)oxazole-4-carboxamide]	0.01 to 1
0.01 to 1	O=C(Nc1cc(F)c(O[C@@H]2C[C@@H]3C[C@@H]3C2)c(F)c1)c1nc(N2CCC3OCCC32)oc1CC(F)(F)F (stereo partly drawn) [Example 157, N-(4-(cis-bicyclo[3.1.0]hexan-3-yloxy)-3,5-difluorophenyl)-2-(hexahydro-4H-furo[3,2-b]pyrrol-4-yl)-5-(2,2,2-trifluoroethyl)oxazole-4-carboxamide]	0.01 to 1
0.01 to 1	CCC1(OC)CN(c2nc(C(=O)Nc3ccc(O[C@@H]4C[C@@H]5C[C@@H]5C4)c(F)c3)c(CC(F)(F)F)o2)C1 [Example 159, N-(4-(cis-bicyclo[3.1.0]hexan-3-yloxy)-3-fluorophenyl)-2-(3-ethyl-3-methoxyazetidin-1-yl)-5-(2,2,2-trifluoroethyl)oxazole-4-carboxamide]	0.01 to 1

Further lines, the compound ahead of its results:

Structure (SMILES)	EC50 (TRPML1) [µM]	EC50 (TFEB) [µM]
CC1(CO)CN(c2nc(C(=O)Nc3ccc(OC4CC5CC(C5)C4)c(F)c3)c(CC(F)(F)F)o2)C1 (centres unmarked) [Example 135, N-(4-(bicyclo[3.1.1]heptan-3-yloxy)-3-fluorophenyl)-2-(3-(hydroxymethyl)-3-methylazetidin-1-yl)-5-(2,2,2-trifluoroethyl)oxazole-4-carboxamide]	0.01 to 1	0.01 to 1
CC1(C)CN(c2nc(C(=O)Nc3ccc(OC4CCC5CC54)c(F)c3)c(CC(F)(F)F)o2)C1 (centres unmarked) [Example 140, N-(4-(bicyclo[3.1.0]hexan-2-yloxy)-3-fluorophenyl)-2-(3,3-dimethylazetidin-1-yl)-5-(2,2,2-trifluoroethyl)oxazole-4-carboxamide]	1 to 10	0.01 to 1
O=C(Nc1ccc(OC2CC3CC(C3)C2)c(F)c1)c1nc(N2CCCC2)oc1CC(F)(F)F (centres unmarked) [Example 143, N-(4-(bicyclo[3.1.1]heptan-3-yloxy)-3-fluorophenyl)-2-(pyrrolidin-1-yl)-5-(2,2,2-trifluoroethyl)oxazole-4-carboxamide]	0.01 to 1	0.01 to 1
O=C(Nc1ccc(O[C@@H]2CC3C[C@@H]3C2)c(F)c1)c1nc(N2CCC3CC32)oc1CC(F)(F)F (stereo partly drawn) [Example 154, 2-(2-azabicyclo[3.1.0]hexan-2-yl)-N-(4-(cis-bicyclo[3.1.0]hexan-3-yloxy)-3-fluorophenyl)-5-(2,2,2-trifluoroethyl)oxazole-4-carboxamide]	0.01 to 1	0.01 to 1
CCC1(CC)CN(c2nc(C(=O)Nc3cc(F)c(OC4CCC5CC54)c(F)c3)c(CC(F)(F)F)o2)C1 (centres unmarked) [Example 155, N-(4-(bicyclo[3.1.0]hexan-2-yloxy)-3,5-difluorophenyl)-2-(3,3-diethylazetidin-1-yl)-5-(2,2,2-trifluoroethyl)oxazole-4-carboxamide]	0.01 to 1	0.01 to 1
O=C(Nc1ccc(O[C@@H]2C[C@@H]3C[C@@H]3C2)c(F)c1)c1nc(N2CC3CCC3C2)oc1CC(F)(F)F (stereo partly drawn) [Example 161, N-(4-(cis-bicyclo[3.1.0]hexan-3-yloxy)-3-fluorophenyl)-2-(3-azabicyclo[3.2.0]heptan-3-yl)-5-(2,2,2-trifluoroethyl)oxazole-4-carboxamide]	0.01 to 1	0.01 to 1
O=C(Nc1ccc(O[C@@H]2C[C@@H]3C[C@@H]3C2)c(F)c1)c1nc(N2CCC3CCCC32)oc1CC(F)(F)F (stereo partly drawn) [Example 162, N-(4-(cis-bicyclo[3.1.0]hexan-3-yloxy)-3-fluorophenyl)-2-(hexahydrocyclopenta[b]pyrrol-1(2H)-yl)-5-(2,2,2-trifluoroethyl)oxazole-4-carboxamide]	0.01 to 1	0.01 to 1
O=C(Nc1cc(F)c(O[C@@H]2C[C@@H]3C[C@@H]3C2)c(F)c1)c1nc(N2CCC3CCCCC32)oc1CC(F)(F)F (stereo partly drawn) [Example 163, N-(4-(cis-bicyclo[3.1.0]hexan-3-yloxy)-3,5-difluorophenyl)-2-(octahydro-1H-indol-1-yl)-5-(2,2,2-trifluoroethyl)oxazole-4-carboxamide]	0.01 to 1	0.01 to 1
